The target in one experiment is JAK1 kinase (Homo sapiens, UniProt P23458). Nature of the experiment: Inhibition assay of JAK1 kinase activity (ADP-Glo Kinase Assay). The experiment is classed as biochemical. From the text: Inhibition assay of JAK1 kinase activity: the method in ADP-Glo™ Kinase Assay (Promega, V9102) was used to determine the inhibitory activity of the test compounds against JAK1 kinase.
Background: ADP-Glo first removes unused ATP, then detects ADP through luciferase.

For another experiment, the target named is T1, TYK2 kinase (Homo sapiens, UniProt P29597).
T1 construct: purchased Life Technologies PR8440C
Nature of the experiment: Inhibition assay of TYK2 kinase activity (ADP-Glo Kinase Assay). It counts as biochemical. Here is the method: Determination of inhibition of TYK2 kinase activity by the examples compounds disclosed herein
Inhibition assay of TYK2 kinase activity: the method of ADP-Glo™ Kinase Assay (Promega, V9102) was used to determine the inhibitory activity of the test compounds against TYK2 kinase.
TYK2 kinase (purchased from Life Technologies, article number: PR8440C) was diluted to the 2-fold final concentration (0.8 ng/mL) using reaction buffer (40 mM Tris-HCl, pH 7.5; 20 mM MgCl2; 0.1 mg/mL BSA; 1 mM DTT), and added to a 384-well plate at 5 μL/well. The test drugs were subjected to a 10-fold gradient dilution, from 10 μM, to obtain 6 concentrations, and added to experimental wells of the 384-well plate at 2.5 μL/well. 5 μL of water and 2.5 μL of buffer were added to negative control wells. 5 μL of TYK2 and 2.5 μL of water were added to positive control wells. After incubating for 10 minutes at room temperature, the substrate ATP and polyE4Y1 (Sigma, P0275) were added at 2.5 μL/well, mixed well, and then reacted at room temperature for 60 minutes. After the reaction was completed, the kinase activity was detected according to the instruction of the kit. First, the ADP-Glo reaction reagent was added at 10 μL/well, mixed well, and reacted at room temperature for 40 minutes. The kinase detection reagent was then added at 20 μL/well, mixed well, and then reacted at room temperature for 30 minutes. The detection was then performed and the IC50s of test drugs were calculated.

T1 sequence (P29597 whole entry): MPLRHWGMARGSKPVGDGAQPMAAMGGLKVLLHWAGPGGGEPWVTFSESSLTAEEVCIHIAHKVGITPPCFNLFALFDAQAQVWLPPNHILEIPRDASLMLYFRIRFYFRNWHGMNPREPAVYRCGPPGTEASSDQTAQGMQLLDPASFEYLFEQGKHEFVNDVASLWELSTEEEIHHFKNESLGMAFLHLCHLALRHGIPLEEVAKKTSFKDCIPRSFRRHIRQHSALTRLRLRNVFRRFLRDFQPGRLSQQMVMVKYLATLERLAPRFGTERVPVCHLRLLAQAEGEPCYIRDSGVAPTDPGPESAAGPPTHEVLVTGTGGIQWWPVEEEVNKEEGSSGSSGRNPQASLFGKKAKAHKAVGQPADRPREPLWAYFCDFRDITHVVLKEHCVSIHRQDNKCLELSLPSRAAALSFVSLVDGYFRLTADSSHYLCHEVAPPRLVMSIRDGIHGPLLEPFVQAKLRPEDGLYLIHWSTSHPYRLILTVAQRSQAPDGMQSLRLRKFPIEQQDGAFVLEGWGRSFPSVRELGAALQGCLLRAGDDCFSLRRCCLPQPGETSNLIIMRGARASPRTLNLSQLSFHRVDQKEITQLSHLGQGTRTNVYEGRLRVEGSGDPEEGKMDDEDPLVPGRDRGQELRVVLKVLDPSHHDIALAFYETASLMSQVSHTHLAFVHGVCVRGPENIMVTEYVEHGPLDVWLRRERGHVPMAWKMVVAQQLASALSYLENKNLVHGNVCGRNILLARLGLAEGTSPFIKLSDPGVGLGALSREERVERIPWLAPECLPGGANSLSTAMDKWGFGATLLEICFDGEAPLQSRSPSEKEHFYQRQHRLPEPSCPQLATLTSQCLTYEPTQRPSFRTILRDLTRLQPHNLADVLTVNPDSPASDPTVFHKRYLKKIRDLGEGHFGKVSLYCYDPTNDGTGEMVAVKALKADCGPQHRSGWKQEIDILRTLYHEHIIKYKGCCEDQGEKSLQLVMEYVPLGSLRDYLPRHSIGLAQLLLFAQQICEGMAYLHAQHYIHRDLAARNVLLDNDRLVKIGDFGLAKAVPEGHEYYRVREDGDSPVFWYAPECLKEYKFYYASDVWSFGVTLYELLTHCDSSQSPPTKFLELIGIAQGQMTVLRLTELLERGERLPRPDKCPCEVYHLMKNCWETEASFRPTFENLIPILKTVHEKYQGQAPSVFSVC
JAK1 kinase, sequence (P23458 whole entry): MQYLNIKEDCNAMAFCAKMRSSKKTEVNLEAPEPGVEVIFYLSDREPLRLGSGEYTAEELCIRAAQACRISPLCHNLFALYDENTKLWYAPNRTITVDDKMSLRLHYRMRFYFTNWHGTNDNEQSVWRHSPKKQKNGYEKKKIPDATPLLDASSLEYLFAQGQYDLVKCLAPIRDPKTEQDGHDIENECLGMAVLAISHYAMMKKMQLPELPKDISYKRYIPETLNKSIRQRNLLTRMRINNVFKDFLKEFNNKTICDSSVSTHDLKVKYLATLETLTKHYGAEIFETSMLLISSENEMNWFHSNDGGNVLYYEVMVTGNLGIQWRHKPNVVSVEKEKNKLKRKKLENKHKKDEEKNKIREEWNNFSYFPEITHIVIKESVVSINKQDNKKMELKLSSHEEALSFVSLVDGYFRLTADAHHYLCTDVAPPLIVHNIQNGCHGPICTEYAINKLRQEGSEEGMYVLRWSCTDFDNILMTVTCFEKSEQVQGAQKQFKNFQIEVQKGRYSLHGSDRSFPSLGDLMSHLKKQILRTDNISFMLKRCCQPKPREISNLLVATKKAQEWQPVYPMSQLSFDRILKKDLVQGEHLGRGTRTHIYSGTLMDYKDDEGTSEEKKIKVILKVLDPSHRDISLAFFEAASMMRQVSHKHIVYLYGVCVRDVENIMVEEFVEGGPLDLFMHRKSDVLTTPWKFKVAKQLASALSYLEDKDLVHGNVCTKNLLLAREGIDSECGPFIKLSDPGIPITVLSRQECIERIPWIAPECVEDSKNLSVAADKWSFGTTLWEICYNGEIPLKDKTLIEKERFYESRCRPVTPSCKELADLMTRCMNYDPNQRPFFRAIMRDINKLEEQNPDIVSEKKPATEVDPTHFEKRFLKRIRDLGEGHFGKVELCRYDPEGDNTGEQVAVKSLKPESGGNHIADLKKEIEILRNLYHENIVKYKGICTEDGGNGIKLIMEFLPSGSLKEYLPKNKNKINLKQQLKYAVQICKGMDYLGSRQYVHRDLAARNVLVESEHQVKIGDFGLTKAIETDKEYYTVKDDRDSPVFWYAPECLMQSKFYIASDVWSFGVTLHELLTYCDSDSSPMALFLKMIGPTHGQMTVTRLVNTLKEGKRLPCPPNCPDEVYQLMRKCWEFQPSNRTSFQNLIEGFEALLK

A word on the IC50: it is the point on the concentration scale where inhibition reaches its midpoint. As to `NC(=O)c1cnc(Nc2ccc3c(c2)NC[C@H](O)CO3)nc1NCc1ccnc2[nH]ccc12` [Example 41, 4-(((1H-pyrrolo[2,3-b]pyridin-4-yl)methyl)amino)-2-(((S)-2,3,4,5-tetrahydro-3-hydroxybenzo[b][1,4]oxazepin-7-yl)amino)pyrimidin-5-carboxamide], the IC50 on JAK1 kinase and at TYK2 kinase was less than 10 nM in each case. In the case of `NC(=O)c1cnc(Nc2ccc3c(c2)NC[C@H](O)CO3)nc1NC12CC3CC(CC(O)(C3)C1)C2` [Example 43, 4-((1-hydroxyadamantan-3-yl)amino)-2-(((S)-2,3,4,5-tetrahydro-3-hydroxybenzo[b][1,4]oxazepin-7-yl)amino)pyrimidin-5-carboxamide], the IC50 against JAK1 kinase and against TYK2 kinase was less than 10 nM each time.

In turn, `NC(=O)c1cnc(Nc2ccc3c(c2)NCC(O)CO3)nc1Nc1cccc(F)c1` (stereo not shown) [Example 18, 4-((3-fluorophenyl)amino)-2-((3-hydroxy-2,3,4,5-tetrahydro-benzo[b][1,4]oxazepin-7-yl)amino)pyrimidin-5-carboxamide] had an IC50 on TYK2 kinase of 10 to 100 nM. In the case of `COc1ccc(CNc2nc(Nc3ccc4c(c3)NCC(O)CO4)ncc2C(N)=O)cc1` (stereo not shown) [Example 11, 4-((4-methoxybenzyl)amino)-2-((3-hydroxy-2,3,4,5-tetrahydro-benzo[b][1,4]oxazepin-7-yl)amino)pyrimidin-5-carboxamide], the IC50 on TYK2 kinase is 10 to 100 nM.

With `NC(=O)c1cnc(Nc2ccc3c(c2)NC[C@H](O)CO3)nc1NC1CNC1` [Example 58, 4-(azetidin-3-ylamino)-2-(((S)-2,3,4,5-tetrahydro-3-hydroxybenzo[b][1,4]oxazepin-7-yl)amino)pyrimidin-5-carboxamide], the IC50 against JAK1 kinase and against TYK2 kinase was 10 to 100 nM throughout. For `NC(=O)c1cnc(Nc2ccc3c(c2)NCC(O)CO3)nc1Nc1cccc2sccc12` (stereo not shown) [Example 21, 4-(benzo[b]thiophen-4-ylamino)-2-((3-hydroxy-2,3,4,5-tetrahydro-benzo[b][1,4]oxazepin-7-yl)amino)pyrimidin-5-carboxamide], the IC50 at TYK2 kinase was less than 10 nM. The compound `CCO[C@@H]1CNc2cc(Nc3ncc(C(N)=O)c(NC4CC4)n3)ccc2OC1` [Example 83, 4-(cyclopropylamino)-2-(((R)-2,3,4,5-tetrahydro-3-ethoxybenzo[b][1,4]oxazepin-7-yl)amino)pyrimidin-5-carboxamide] yielded an IC50 against TYK2 kinase of less than 10 nM. As to `NC(=O)c1cnc(Nc2ccc3c(c2)NC[C@H](O)CO3)nc1NCCCN1CCOCC1` [Example 62, 4-((3-morpholinopropyl)amino)-2-(((S)-2,3,4,5-tetrahydro-3-hydroxybenzo[b][1,4]oxazepin-7-yl)amino)pyrimidin-5-carboxamide], the IC50 on JAK1 kinase and against TYK2 kinase was 10 to 100 nM each time. `Cn1ccc2c(Nc3nc(Nc4ccc5c(c4)NCC(O)CO5)ncc3C(N)=O)cccc21` (stereo not shown) [Example 20, 4-((1-methyl-1H-indol-4-yl)amino)-2-((3-hydroxy-2,3,4,5-tetrahydro-benzo[b][1,4]oxazepin-7-yl)amino)pyrimidin-5-carboxamide]: the IC50 was 10 to 100 nM against JAK1 kinase and less than 10 nM against TYK2 kinase.

As to `N#CCNc1nc(Nc2ccc3c(c2)NCC(O)CO3)ncc1C(N)=O` (stereo not shown) [Example 8, 4-(cyanomethylamino)-2-((3-hydroxy-2,3,4,5-tetrahydro-benzo[b][1,4]oxazepin-7-yl)amino)pyrimidin-5-carboxamide], the IC50 against JAK1 kinase was 10 to 100 nM; against TYK2 kinase it was less than 10 nM. For the compound `NC(=O)c1cnc(Nc2ccc3c(c2)NCC(O)CO3)nc1Nc1ccccc1` (stereo not shown) [Example 16, 4-(phenylamino)-2-((3-hydroxy-2,3,4,5-tetrahydro-benzo[b][1,4]oxazepin-7-yl)amino)pyrimidin-5-carboxamide], the IC50 against TYK2 kinase fell in the range of 10 to 100 nM. On to `NC(=O)c1cnc(Nc2ccc3c(c2)NCC(O)CO3)nc1NCc1ccc(F)cc1` (stereo not shown) [Example 10, 4-((4-fluorobenzyl)amino)-2-((3-hydroxy-2,3,4,5-tetrahydro-benzo[b][1,4]oxazepin-7-yl)amino)pyrimidin-5-carboxamide], for which, on TYK2 kinase, the IC50 lay in the range of 10 to 100 nM. The same measure, in the same setting: the same measure for `CCCCO[C@@H]1CNc2cc(Nc3ncc(C(N)=O)c(NC4CC4)n3)ccc2OC1` [Example 85, 4-(cyclopropylamino)-2-(((R)-2,3,4,5-tetrahydro-3-butoxybenzo[b][1,4]oxazepin-7-yl)amino)pyrimidin-5-carboxamide]: less than 10 nM.

`CC(O)CNc1nc(Nc2ccc3c(c2)NCC(O)CO3)ncc1C(N)=O` (stereo not shown) [Example 23, 4-((2-hydroxypropyl)amino)-2-((3-hydroxy-2,3,4,5-tetrahydro-benzo[b][1,4]oxazepin-7-yl)amino)pyrimidin-5-carboxamide] displayed an IC50 against TYK2 kinase of less than 10 nM.

Consider `NC(=O)c1cnc(Nc2ccc3c(c2)NCC(O)CO3)nc1NCc1ccncc1` (stereo not shown) [Example 15, 4-((pyridin-4-ylmethyl)amino)-2-((3-hydroxy-2,3,4,5-tetrahydro-benzo[b][1,4]oxazepin-7-yl)amino)pyrimidin-5-carboxamide], for which the IC50 on TYK2 kinase lay in the range of 10 to 100 nM. As to `CC(Nc1nc(Nc2ccc3c(c2)NCC(O)CO3)ncc1C(N)=O)c1ccccc1` (stereo not shown) [Example 12, 4-((1-phenylethyl)amino)-2-((3-hydroxy-2,3,4,5-tetrahydro-benzo[b][1,4]oxazepin-7-yl)amino)pyrimidin-5-carboxamide], the 50% inhibitory concentration (IC50) on TYK2 kinase fell in the range of 10 to 100 nM. Same read-out and setting: for `Cc1ccc(Nc2nc(Nc3ccc4c(c3)NCC(O)CO4)ncc2C(N)=O)nc1` (stereo not shown) [Example 19, 4-((5-methylpyridin-2-yl)amino)-2-((3-hydroxy-2,3,4,5-tetrahydro-benzo[b][1,4]oxazepin-7-yl)amino)pyrimidin-5-carboxamide] the value was 10 to 100 nM; for `CCS(=O)(=O)NCCNc1nc(Nc2ccc3c(c2)NC[C@H](O)CO3)ncc1C(N)=O` [Example 71, 4-((2-(ethylsulfonamido)ethyl)amino)-2-(((S)-2,3,4,5-tetrahydro-3-hydroxybenzo[b][1,4]oxazepin-7-yl)amino)pyrimidin-5-carboxamide], less than 10 nM; for `CCCCCO[C@H]1CNc2cc(Nc3ncc(C(N)=O)c(NC4CC4)n3)ccc2OC1` [Example 88, 4-(cyclopropylamino)-2-(((S)-2,3,4,5-tetrahydro-3-pentoxybenzo[b][1,4]oxazepin-7-yl)amino)pyrimidin-5-carboxamide], 10 to 100 nM. In turn, `NC(=O)c1cnc(Nc2ccc3c(c2)NCC(O)CO3)nc1NC1CCCc2ccccc21` (stereo not shown) [Example 22, 4-((1,2,3,4-tetrahydronaphthalen-1-yl)amino)-2-((3-hydroxy-2,3,4,5-tetrahydro-benzo[b][1,4]oxazepin-7-yl)amino)pyrimidin-5-carboxamide] registered an IC50 on TYK2 kinase of 10 to 100 nM.

Consider `NC(=O)c1cnc(Nc2ccc3c(c2)NCC(O)CO3)nc1NCc1ccccn1` (stereo not shown) [Example 13, 4-((pyridin-2-ylmethyl)amino)-2-((3-hydroxy-2,3,4,5-tetrahydro-benzo[b][1,4]oxazepin-7-yl)amino)pyrimidin-5-carboxamide], for which the IC50 at TYK2 kinase was less than 10 nM. Take `CC(C)(CO)Nc1nc(Nc2ccc3c(c2)NC[C@H](O)CO3)ncc1C(N)=O` [Example 28, 4-((1-hydroxy-2-methylpropan-2-yl)amino)-2-(((S)-2,3,4,5-tetrahydro-3-hydroxybenzo[b][1,4]oxazepin-7-yl)amino)pyrimidin-5-carboxamide]: the IC50 against TYK2 kinase is less than 10 nM.
